Entries after “also recorded” stand apart in the source; their conditions may differ.
How the values were obtained:
[1] = system: fatty acids attached to phospholipid classes in spinal cord; experiment: lipid profiling of spinal cords of EAE mice (fatty acid hydrolysis); type: in vivo, mouse; conditions: for Treatment: mean ± SD, n=3; for % Difference: treated EAE vs naive
Description: Spinal cords were removed from vehicle and inhibitor treated animals at the peak stage of disease when the vehicle-treated mice reached the clinical score of 4, and the tissue snap frozen in liquid nitrogen. Lipid profiling was carried out by Lipomics Technology Inc. (West Sacramento, Calif.). The tissues were then extracted for either TrueMass® lipid profiling, or an eicosanoid inflammatory panel analysis. The lipids from the tissues were extracted in the presence of authentic internal standards as previously described (55), using chloroform:methanol (2:1 v/v). Individual lipid classes within each extract were separated by liquid chromatography (Agilent Technologies model 1100 Series). Each lipid class was trans-esterified in 1% sulfuric acid in methanol in a sealed vial under a nitrogen atmosphere at 100° C. for 45 min. The resulting fatty acid methyl esters were extracted from the mixture with hexane containing 0.05% butylated hydroxytoluene and prepared for gas chromatography by sealing the hexane extracts under nitrogen. Fatty acid methyl esters were separated and quantified by capillary gas chromatography (Agilent Technologies model 6890) equipped with a 30 m DB-88MS capillary column (Agilent Technologies) and a flame-ionization detector. Lipomic Surveyor® software was used to visualize changes within the treated groups. Experiments were repeated with 3 different samples (n=3), and all the detection and analysis was done blind.
As PLA2s hydrolyze fatty acids from the sn-2 position of phospholipids, a comprehensive profiling was carried out of 40 fatty acids (FAs) that are attached to 5 phospholipid classes in extracts of spinal cords of naive mice, EAE mice treated with vehicle, and PLA2 inhibitor-treated EAE mice. […] These tissues were taken from the same groups of mice used for the chemokine/cytokine assay described above.

[2] = molecular target: T1, human cPLA2 (GIVA) (Homo sapiens, UniProt P47712); experiment: cPLA2 (GIVA) specific mixed micelle assay; type: biochemical; conditions: at 0.091 mol fraction
T1 sequence (P47712 1-749): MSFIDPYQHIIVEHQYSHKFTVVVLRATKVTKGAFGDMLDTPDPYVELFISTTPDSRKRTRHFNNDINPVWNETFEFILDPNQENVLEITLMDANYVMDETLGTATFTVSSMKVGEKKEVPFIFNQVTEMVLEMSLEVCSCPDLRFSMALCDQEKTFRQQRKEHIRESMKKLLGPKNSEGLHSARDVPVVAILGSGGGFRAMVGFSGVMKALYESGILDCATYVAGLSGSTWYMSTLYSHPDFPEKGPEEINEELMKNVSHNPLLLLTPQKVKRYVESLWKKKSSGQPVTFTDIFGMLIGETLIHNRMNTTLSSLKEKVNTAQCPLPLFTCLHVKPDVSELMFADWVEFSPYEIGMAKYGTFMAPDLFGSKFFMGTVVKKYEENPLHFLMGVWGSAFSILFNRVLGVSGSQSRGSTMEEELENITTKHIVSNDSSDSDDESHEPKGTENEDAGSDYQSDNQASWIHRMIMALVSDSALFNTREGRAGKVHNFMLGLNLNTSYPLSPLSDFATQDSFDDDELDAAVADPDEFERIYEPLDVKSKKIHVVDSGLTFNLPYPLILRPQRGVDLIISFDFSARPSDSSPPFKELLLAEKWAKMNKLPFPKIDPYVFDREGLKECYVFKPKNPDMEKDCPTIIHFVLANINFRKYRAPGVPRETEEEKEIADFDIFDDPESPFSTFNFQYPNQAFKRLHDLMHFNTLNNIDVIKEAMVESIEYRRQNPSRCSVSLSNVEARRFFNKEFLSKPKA
Description: The compounds described herein were tested for inhibition of PLA2s in in vitro assay systems. The data, summarized in the Examples, are represented as XI(50) values unless otherwise noted. XI(50) is defined as the inhibitor concentration that produced 50% inhibition. XI(50) is used as opposed to the more common IC50 because GIVA and GVIA PLA2 are active at a two-dimensional lipid interface rather than in three-dimensional solution. (Deems, Anal. Biochem., 287:1-16, 2000).
For the groups that received delayed treatment after symptoms occurred, mice were treated with daily intraperitoneal injections of AX059 starting from the first day of clinical symptoms, beginning on day 11; and AX115 starting from the first day of clinical peak (i.e., score 4), beginning of day 14. All inhibitors were administered for 2 weeks. The selectivity of the compounds for the different PLA2s is shown as the percentage inhibition in Table 1. The XI(50) is the mole fraction of the inhibitor in the total substrate interface required to inhibit the enzyme by 50%.
Compound AX115 was tested for its ability to inhibit human cPLA2 (GIVA) in a cPLA2 (GIVA) specific assay that uses mixed micelles of the substrate 1-palmitoyl-2-arachidonyl phosphatidylcholine and the detergent Triton X-100 (97:3) containing phosphatidylinositol 4,5-bisphosphate (400 μM) as previously described. […]

[3] = system: BALB/c mice with spinal cord contusion; experiment: spinal cord contusion (SCI) model, locomotor recovery and histology; type: in vivo, mouse

## CCCCCCCCCCCCCCC(=O)C(=O)NCC(=O)OC [AX115]
[1]; Cardiolipin - arachidic, naive 464.0 ± 69.4
  Treatment: 324.4 ± 27.5 nmol
[1]; Cardiolipin - arachidic
  % Difference: 30.1%
[1]; Cardiolipin - eicosapentaenoic, naive 16.1 ± 4.8
  Treatment: 3.2 ± 5.5 nmol
[1]; Cardiolipin - eicosapentaenoic
  % Difference: 80.3%
[1]; Phosphatidylcholine - arachidic, naive 347.9 ± 20.1
  Treatment: 269.4 ± 24.9 nmol
[1]; Phosphatidylcholine - arachidic
  % Difference: 22.5%
[1]; Phosphatidylcholine - eicosenoic, naive 1666.2 ± 46.4
  Treatment: 1393.4 ± 52.5 nmol
[1]; Phosphatidylcholine - eicosenoic
  % Difference: 16.4%
[1]; Phosphatidylcholine - erucic
  % Difference: 22.4%
[1]; Phosphatidylserine - tetracosahexanoic, naive 9.7 ± 0.8
  Treatment: 6.4 ± 0.6 nmol
[1]; Phosphatidylserine - tetracosahexanoic
  % Difference: 33.8%
[1]; Phosphatidylserine-1-enyl-octadecenoic, naive 217.4 ± 37.9
  Treatment: 133.3 ± 32.5 nmol
[1]; Phosphatidylserine-1-enyl-octadecenoic
  % Difference: 38.7%
[2]
  Inhibition cPLA2 GIVA: 62%
[3]; 300 to 1000 μm rostral and caudal to lesion epicenter, 28 dpi, vs vehicle
  neuron survival in ventral horn (cresyl violet): significantly greater neuron survival; also recorded: significantly better survival of ventral horn neurons; also recorded: greater number of neuronal profiles
[3]; 1000 μm caudal to lesion epicenter, 28 dpi, vs vehicle
  serotonergic innervation: significantly greater serotonergic innervation; also recorded: marked increase of serotonergic fibers
[3]; 28 days after SCI, vehicle 4.6, 9-point scale
  BMS score: 6.6
[3]; daily i.p. 6.85 mg/kg from 1 h after contusion for 14 days, significant from 5 dpi, 6.85 mg/kg
  locomotor function (BMS scores) vs vehicle treated injured mice: marked improvement in the BMS scores; also recorded: markedly improved locomotor function
[3]; epicenter and 300 μm rostral and caudal, 28 dpi, vs vehicle
  myelin loss (Luxol fast blue): marked reduction of myelin loss
[3]; lesion epicenter and adjacent regions, 28 dpi, vs vehicle
  tissue sparing (GFAP staining): significant amount of tissue sparing; also recorded: significant tissue protection; also recorded: marked reduction in tissue loss
[3]; vs vehicle
  improvement in BMS subscores (fine locomotor control): 4 points
  increase in the density of 5-HT fibers within the lateral funiculi and ventral horns: 3 fold
